Target: T1, PAR4 (protease-activated receptor 4) (Homo sapiens, UniProt Q96RI0)
T1 sequence (Q96RI0 48-385): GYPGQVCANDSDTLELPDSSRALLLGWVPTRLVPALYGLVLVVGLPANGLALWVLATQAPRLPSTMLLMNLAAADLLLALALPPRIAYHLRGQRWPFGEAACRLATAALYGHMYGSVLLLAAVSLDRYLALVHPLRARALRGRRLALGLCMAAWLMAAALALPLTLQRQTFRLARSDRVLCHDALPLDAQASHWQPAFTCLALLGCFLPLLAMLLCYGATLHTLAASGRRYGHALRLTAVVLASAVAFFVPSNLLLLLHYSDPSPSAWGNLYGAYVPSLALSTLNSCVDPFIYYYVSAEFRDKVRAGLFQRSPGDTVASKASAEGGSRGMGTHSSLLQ
Assay: inhibition of human platelet activation by […] gamma-thrombin
Format: cell-based

IC50: 8.42 nM
Substance: VU0661245
